Assay results from patent publication US8389680B2, “Treatment of Aspergillus infections with alpha thymosin peptides” (SciClone Pharmaceuticals, Inc., priority 2003, dated 2013).
Entries after “also recorded” stand apart in the source; their conditions may differ.

Tests used:
Aspergillus conidia = test: Antifungal effector activity (conidiocidal activity) of macrophages and neutrophils; assay type: cell-based; details: TA1 treated mice
Procedure: […] In addition, the conidiocidal activity was assessed by determining the number of colony forming units and the percentage of colony forming units inhibition (mean±SE), referred to as conidiocidal activity.

[1] = tested on: lymphocytes and neutrophils; test: Myeloid and Th1 cell recovery in BMT mice with IA; assay type: in vivo
Description: The treatments were as follows; in BMT-mice, TA1, at different doses administered intraperitoneally, sthymosin alpha 1, 400 microgram/kg administered intraperitoneally or human recombinant G-CSF 250 microgram/kg administered intravenously, were given daily beginning the day of the BM infusion, in concomitance with the infection and continuing for an additional 3 days. Amphotericin B was given daily for 3 days in concomitance with the infection, at a dose of 4000 microgram/kg, administered intraperitoneally. This dose would cure IA in cyclophosphamide-treated mice. Cyclophosphamide, 150 mg/kg administered intraperitoneally, was given a day before the infection. In cyclophosphamide-treated mice, 400 microgram/kg TA1 was given intraperitoneally for 5 consecutive days beginning the day of the infection. Cell surface phenotype was assessed by reacting samples with FITC- or PE-conjugated rat anti-mouse antibodies. Unrelated hisotype matched antibodies were used as control. The levels of TNF-alpha, IL-10, IL-12 p70, IFN-alpha and IL-8 in culture supernatants were determined by Kit ELISAs. The detection limits (pg/ml) of the assays were <3 (human) and <32 (murine) for TNF-alpha, <12 (murine) and <5 (human) for IL-10, <16 (murine) and <3 (human) for IL-12 p70 and <25 (human) IL-8. For human IFN-alpha <3 ng/ml. For enumeration of cytokine-producing cells, an ELISPOT assay was used on purified CD4^+ T cells and DCs from lungs. Proliferation of lung CD4^+ T lymphocytes stimulated with 10 microgram/ml Con A or heat inactivated conidia in the presence of lung DCs, was assessed by labeling with CFSE 5(6)-carboxyfluorescein diacetate succinimidyl ester.

p38 and NF-kB = test: Analysis of p38 and NF-kB activation on lung DCs; assay type: cell-based, murine; details: peptide alone, 20 minutes
Procedure: P38 and NF-kB were activated on lung DCs by exposure for 20 minutes at 37° C. to Aspergillus conidia and/or 100 ng/ml TA1. Blots of cell lysates were incubated with rabbit polyclonal Abs recognizing either the unphosphorylated form of p38 MAPK, or the double-phosphorylated (Thr-180/Tyr-182) p38 MAPK, or Abs specific for the Rel A, 65 kDa DNA binding subunit of human NF-kB followed by horseradish peroxidase-conjugated goat anti-rabbit IgG, as per manufacturer's instructions. Blots were developed with an Enhanced Chemiluminescence detection kit. Bands were visualized after exposure of the blots to a Kodak RX film. To ensure similar protein loading in each lane, the phospho blots were stripped and the membranes were reprobed with Abs against p38 and NF-kB.

murine DCs = test: IL-12 p70 and IL-10 production by murine DCs in response to microbial TLR ligands; assay type: cell-based
Procedure: Zymosan was from Saccharomyces cerevisiae, lipoteichoic acid (LTA) from Staphylococcus aureus, and lipopolysaccharide (LPS) from Salmonella Minnesota Re 595. The CpG oligonucleotides 1826 and 2006 were proven immunostimulatory sequences. For phagocytosis, DCs were pre-exposed to 100 ng/ml TA1 for 60 minutes and subsequently incubated at 37° C. with Aspergillus conidia for an additional 60 minutes. The percentage of internalization was calculated and photographs were taken. In assessing functional maturation and cytokine determination, purified DCs were resuspended in Iscove's medium (with no serum but with polymixin B, to avoid non-specific activation by serum components and endotoxin) and pulsed with 100 ng/ml TA1 for 24 hours either alone or together with TLR ligands or unopsonized Aspergillus conidia. The levels of TNF-alpha, IL-10, IL-12 p70, IFN-alpha and IL-8 in culture supernatants were determined by Kit ELISAs. The detection limits (pg/ml) of the assays were <3 (human) and <32 (murine) for TNF-alpha, <12 (murine) and <5 (human) for IL-10, <16 (murine) and <3 (human) for IL-12 p70 and <25 (human) IL-8. For human IFN-alpha <3 ng/ml. For enumeration of cytokine-producing cells, an ELISPOT assay was used on purified CD4^+ T cells and DCs from lungs.

A. fumigatus = test: Therapeutic efficacy of TA1 in T cell-, IFN-gamma- or IL-4-deficient mice with aspergillosis; assay type: in vivo
Description: Female, 8- to 10-weeks old, BALB/c and C57BL6 mice were from Charles River. NOD/SCID were from The Jackson. Breeding pairs of homozygous TLR2-, TLR9- and MyD88-deficient mice, raised on C57BL6 background, and of homozygous IFN-gamma- and IL-4-deficient mice, raised on BALB/c background, were bred under specific-pathogen free conditions.
For infection with A. fumigatus, mice were intranasally injected for 3 consecutive days with a suspension of 2×10^7 conidia/20 microliter saline. For the quantification of fungal growth in the lungs, the chitin assay was used. The chitin content was expressed as micrograms of glucosamine per organ. The glucosamine content of lungs from uninfected mice was used as a negative control ranging between 0.80 and 2.25 microgram glucosamine/organ. For histological analysis, lungs were excised and immediately fixed in formalin. Sections (3 to 4 micron) of paraffin-embedded tissues were stained with the periodic acid-Schiff procedure. Thymosin alpha 1 (TA1) and the scrambled polypeptide are as purified sterile lyophilized acetylated polypeptides with endotoxin levels less than 0.03 pg/ml, by a standard limulus lysate assay. The sequences were as follows: Ac-[…]O (Thymosin alpha 1, SEQ ID NO.: 1) and Ac-[…]OH ([…]). Their lyophilized powders were reconstituted in sterile water.
The treatments were as follows; in BMT-mice, TA1, at different doses administered intraperitoneally, sthymosin alpha 1, 400 microgram/kg administered intraperitoneally or human recombinant G-CSF 250 microgram/kg administered intravenously, were given daily beginning the day of the BM infusion, in concomitance with the infection and continuing for an additional 3 days. Amphotericin B was given daily for 3 days in concomitance with the infection, at a dose of 4000 microgram/kg, administered intraperitoneally. This dose would cure IA in cyclophosphamide-treated mice. Cyclophosphamide, 150 mg/kg administered intraperitoneally, was given a day before the infection. […]

[2] = BMT mice, cytofluorimetric analysis
[3] = after stimulation with CpG (TLR9)
[4] = after stimulation with LTA (TLR2)
[5] = after stimulation with zymosan (TLR2)

Ac-Ser-Asp-Ala-Ala-Val-Asp-Thr-Ser-Ser-Glu-Ile-Thr-Thr-Lys-Asp-Leu-Lys-Glu-Lys-Lys-Glu-Val-Glu-Glu-Ala-Glu-Asn-O (Ac-SDAAVDTSSEITTKDLKEKKEVEEAEN-OH) [TA1, naturally occurring thymic peptide]
conidiocidal activity of macrophages (Aspergillus conidia): higher | conidiocidal activity of neutrophils (Aspergillus conidia): higher | frequency of Th1 cells (producing IFN-gamma) ([1]; BMT mice treated with TA1): increased; also recorded: higher | frequency of Th2 cells (producing IL-4) ([1]; BMT mice treated with TA1): decreased; also recorded: lower | function of lung CD4+ T lymphocytes (antigen-specific proliferation and IFN-gamma production) ([1]; BMT mice treated with TA1): functionally active | number of lung CD4+ cells [1, 2]: increase; also recorded: significantly increased | number of lung CD8+ cells [1, 2]: increase; also recorded: significantly increased | number of lung neutrophils [1, 2]: significantly increased | total neutrophils ([1]; BMT mouse model, TA1 treatment after Aspergillus infection): increase | absolute number of circulating lymphocytes ([1]; after TA1 treatment): significantly increases | absolute number of circulating neutrophils ([1]; after TA1 treatment): significantly increases | p38 phosphorylation (p38 and NF-kB): induced | production of IL-10 (murine DCs; [3]): decreases | production of IL-12 p70 (murine DCs; [3]): significantly increased | production of IL-10 (murine DCs; [4]): decreases | production of IL-12 p70 (murine DCs; [4]): significantly increased | production of IL-10 (murine DCs; [5]): decreases | production of IL-12 p70 (murine DCs; [5]): significantly increased | cytokine production (IL-12 p70 and IL-10) (murine DCs; in response to LPS (TLR4)): did not affect | cytokine production (IL-12 p70 and IL-10) (murine DCs; in response to Poly(I:C)): did not affect | therapeutic efficacy (A. fumigatus; IL-4-deficient mice (increased Th1 cells)): improved therapeutic efficacy | therapeutic efficacy (A. fumigatus; mice devoid of IFN-gamma-producing Th1 cells): not as great | therapeutic efficacy (A. fumigatus; mice devoid of T cells): not as great
